Measured values from a melting point compilation (Tetko et al.; mined from patent text by program, amines drawn as free bases though some values may be those of a salt).

In the case of `Cc1nc2c(c3c1[nH]c1ccccc13)C(=NO)CC(C)(C)C2`, the melting point is reported as 293 to 294 °C.
Work on `C=CS(=O)(=O)NCCCc1ccc(-c2ccc(=O)[nH]n2)cc1` yielded a melting point of 166 to 168 °C.
Work on `COc1ccc(CCC(=O)NNC(=O)c2ccc3ncsc3c2)cc1C(F)(F)F` yielded a melting point of 208 to 209 °C.
With `COc1ccc2ccc(OS(=O)(=O)C(F)(F)F)cc2c1` the melting point was 34 °C.
With `CCCCc1c(O)c2nccnc2n(-c2ccccc2)c1=O` the melting point was 183 to 185 °C.
`Oc1ccc(O)c(C2(c3ccccc3)CC3CCC2C3)c1` (stereo unspecified) showed a melting point of 179 to 181 °C.
`CS(=O)(=O)c1ccc(-c2c(-c3ccc(F)cc3)c(=O)n3n2Cc2c(Cl)cccc2-3)cc1` gave a melting point of 237 to 240 °C.
Molecule `CN1CCN(c2cccc3c2C[C@H](NC(=O)c2ccc(C(F)(F)F)cc2C(F)(F)F)CO3)CC1` has a melting point of 202 to 203 °C.
`COc1cccc2c1CC(N=[N+]=[N-])C(O)C2` (stereo unspecified) showed a melting point of 83 to 84 °C.
For `COc1ccc(S(=O)(=O)n2ccc3ccccc32)cc1`, the melting point was 124 to 126 °C.
`O=C(c1cnc2ccccc2n1)N1CC2CC2(c2ccc(Cl)cc2)C1` (stereo unspecified) gave a melting point of 90 to 105 °C.
In the case of `O=C(O)c1cc(-c2ccc(OC(F)(F)F)cc2)c2c3c(ccc2c1)OCO3`, the melting point is reported as 296 to 300 °C.
Molecule `Fc1cccc2onc(Nc3ccncc3)c12` has a melting point of 160 to 161 °C.
With `CC(C)=NNC(=O)NCCCN(C)C` the melting point was 49 to 53 °C.
Work on `CNC(=O)c1cccc2cccc(NC(=O)c3ccc(F)c(F)c3)c12` yielded a melting point greater than 250 °C.
Molecule `COCc1ccc(C#Cc2ccc3c(c2)C(C)(C)CCC3(C)C)cc1` has a melting point of 93 to 94 °C.
`COCOc1cccc2cccc(C=O)c12` gave a melting point of 56 to 57 °C.
Work on `Cc1ccc(-c2c(CNC(=O)OC(C)(C)C)n(CC(C)C)c(=O)c3ccc(/C=C/C(=O)O)cc23)cc1` yielded a melting point of 171 to 173 °C.
For `CSc1nn2c(Cl)cc(CN3CCN(C)CC3)nc2c1S(=O)(=O)c1ccccc1`, the melting point was 113 to 116 °C.
`CCCCCCCCCCCCc1c[nH]c2cc(C(=O)OC)ccc12` gave a melting point of 85 to 89 °C.
In the case of `COc1cc(C(=O)NS(=O)(=O)c2ccccc2)ccc1Cc1cn(C)c2ccc(NC(=O)OC3CCCC3)cc12`, the melting point is reported as 125 to 130 °C.
`Cc1ccc2[nH]c3c(c2c1)C(=O)CCC3` gave a melting point greater than 255 °C.
With `COC(=O)c1cc(OP(=S)(OC)OC)c(C(=O)OC)s1` the melting point was 71 °C.
For `O=C(CCN1CCN(c2ncc(F)cn2)CC1)Cc1cccs1`, the melting point was 77 to 78 °C.
With `CC(=O)SCCNC(=O)[C@H](CS)NC(=O)C(C)C` the melting point was 117 to 120 °C.
Molecule `CN(C)Cc1cc(C(=O)C2CCCCC2)cc(C(C)(C)C)c1O` has a melting point of 149 to 150 °C.
With `Cc1ccc(C(=O)Oc2ccc(C(CN(C)C)C3(O)CCCCC3)cc2)cc1` (stereo unspecified) the melting point was 159 to 162 °C.
With `O=C(c1cc([N+](=O)[O-])cc(C(F)(F)F)c1)c1cc([N+](=O)[O-])cc(C(F)(F)F)c1` the melting point was 181 °C.
Work on `Cc1cnc2[nH]cc(/C=C3\N=C(N4CCN(c5ccccc5)CC4)NC3=O)c2c1` yielded a melting point of 331 to 332 °C.
`Cc1cc(CCC[C@H](CC(=O)OC(C)(C)C)C(=O)N[C@H](C(=O)O)C(C)(C)C)ccc1-c1ccccc1` showed a melting point of 51 to 56 °C.
For `O=C(F)OC12CC3CC(CC(C3)C1)C2`, the melting point was 32 to 33 °C.
`NC1=c2c3c(ccc2=CCS1)CCCN3` showed a melting point of 214 to 216 °C.
In the case of `Cc1ccc2ncccc2c1C(=O)NCC1CCCCC1`, the melting point is reported as 165 °C.
Molecule `CSc1nnc(-c2ccc(F)cc2)c(-c2ccc(N(C)C)cc2)n1` has a melting point of 144 to 146 °C.
For `CCOc1ccc(C(=O)Nc2ccccc2)cc1N`, the melting point was 189 to 190 °C.
Work on `CCCc1c(OCCCCCOc2c(C(C)=O)ccc(OCCCC(=O)O)c2CCC)ccc(C(C)=O)c1O` yielded a melting point of 61 to 66 °C.
In the case of `CCCC(CCC)N(C[C@H]1CCC[C@H](CN(C(=O)Nc2ccc(N(C)C)cc2)C(CCC)CCC)C1)C(=O)Nc1ccc(N(C)C)cc1` (relative stereo), the melting point is reported as 122 to 126 °C.
`O=C(CCS)N[C@@H](Cc1ccc(O)c(O)c1)C(=O)O` gave a melting point of 89 to 91 °C.
`CCCCc1nc2c(N)nc3ccccc3c2n1CCCNC(=O)c1ccccc1` gave a melting point of 189 to 190 °C.
`CC1(C)Cc2c(c(N3CCCC3)nc3sc4c(NCc5ccc(S(N)(=O)=O)cc5)ncnc4c23)CO1` showed a melting point of 295 °C.
`CC(C(=O)n1c(=O)oc2ccccc21)C(O)c1ccccc1` (stereo unspecified) showed a melting point of 155 to 158 °C.
In the case of `COCC[C@H]1CN(c2cc(C)cc3c2C=Nc2ccccc2N3)CCN1C`, the melting point is reported as 100 to 108 °C.
With `CC(=O)n1ncc2c(O)cc(C)cc21` the melting point was 191 to 192 °C.
`NC1CCN(c2cnccn2)CC1` gave a melting point of 158 to 160 °C.
With `CCOC(=O)c1cnc(O)nc1Cc1ccccc1` the melting point was 57 to 61 °C.
`C#CCC1(C2CCC3C(O[Si](C)(C)C(C)(C)C)CCCC32C)CC1` (stereo unspecified) showed a melting point of 49 to 50 °C.
In the case of `CCCCCCCCCCCCCCCCCCOCC(COC1CCCCO1)NC(C)=O` (stereo unspecified), the melting point is reported as 52 to 55 °C.
With `CNC(=O)C1CCc2c(C(=O)c3ccccc3)cccc21` (stereo unspecified) the melting point was 145 to 146 °C.
Work on `Cc1cc([N+](=O)[O-])ccc1NC1CC1` yielded a melting point of 35 to 37 °C.
With `Cc1cc(C=Cc2ccccc2OCC2CO2)on1` (stereo unspecified) the melting point was 99 to 100 °C.
Molecule `CCCCC1NC(/C=C(\Cc2cccs2)C(=O)O)=CN1Cc1ccc(C(=O)O)c(-c2ccccc2)c1` (stereo unspecified) has a melting point of 158 to 161 °C.
Work on `COCCN1CCn2c1nc(C(=O)NCc1ccc(F)cc1)c(O)c2=O` yielded a melting point of 166 °C.
Molecule `CCCNC(=O)c1nc(-c2ccccc2)c(-c2ccc(=O)n(CCC)n2)s1` has a melting point of 121 to 122 °C.
`Cc1cc(C)cc(Sc2c(CN3CCOCC3)c(C)[nH]c(=O)c2I)c1` gave a melting point of 230 °C.
Work on `CNC(=S)C1(c2cccnc2)CCCCS1=O` (stereo unspecified) yielded a melting point of 228 °C.
`CC(=O)OCC12CCC(=O)C=C1CCC1C2CCC2(C)C(O)CCC12` (stereo unspecified) showed a melting point of 125 to 127 °C.
`Cc1nc(-c2ccc(C(=O)N3Cc4cccn4Cc4ccccc43)cc2)n(C)n1` gave a melting point of 193 to 195 °C.
With `CCOC(=O)C(CC)C(=O)Nc1ccc(Br)cc1C` (stereo unspecified) the melting point was 98 to 100 °C.
`O=C(O)c1cccc(C(=O)CCl)n1` showed a melting point of 184 to 189 °C.
In the case of `ClCCCOc1ccc(-c2ccccc2)cc1`, the melting point is reported as 65 to 66 °C.
Molecule `Cc1cc(C#N)cc(C)c1Nc1nc(Nc2ccc(C#N)cc2)nc(Cl)c1Br` has a melting point of 259 to 260 °C.
Work on `CC1(Cn2nc(Cc3ccc(Cl)cc3)oc2=O)Cn2cc([N+](=O)[O-])nc2O1` (stereo unspecified) yielded a melting point of 151 to 153 °C.
Work on `COc1cc(C(C)(C)C)c(OC(C)=O)c(C(C)(C)C)c1CC(C)=O` yielded a melting point of 133 °C.
With `COc1ccc(S(=O)(=O)N(C)c2cccc(-c3ccnc4c([N+](=O)[O-])cnn34)c2)cc1` the melting point was 205 to 206 °C.
Work on `Cc1c(C#N)sc(N=Nc2c(NCC(C)O)nc(NCC(C)O)c(C#N)c2C)c1C#N` (stereo unspecified) yielded a melting point of 268 to 269 °C.
With `CC(C)(C)OC(=O)Nc1ccsc1C(=O)O` the melting point was 168 to 169 °C.
In the case of `N#Cc1ccccc1Cn1ccc(OCc2ccc(F)cc2F)c(Br)c1=O`, the melting point is reported as 194 to 197 °C.
For `Cc1c(C(=O)O)ccc(O)c1O`, the melting point was 200 to 201 °C.
Molecule `N#Cc1cnn(-c2ccc(Cl)cc2Cl)c1NN` has a melting point of 199 to 204 °C.
`CCOC(=O)c1c(Cl)c2cc(F)cnc2[nH]c1=O` gave a melting point of 217 °C.
`Clc1ccc(Nc2nc3ccccc3o2)c(Cl)c1` showed a melting point of 98 to 99 °C.
`O=C1c2cccc(NC(=S)Nc3ccccn3)c2C2CC3(CCN12)SCCS3` (stereo unspecified) showed a melting point of 142 °C.
For `O=C(O)c1cc(=O)c(OCc2ccccc2)c(-c2ccccc2)o1`, the melting point was 161 to 170 °C.
In the case of `COC(=O)c1ccc(NN=CC(F)(F)F)cc1S(=O)(=O)NC(=O)Nc1nc(OC)cc(OC)n1`, the melting point is reported as 201 to 202 °C.
With `CN1Cc2c(C#C[Si](C)(C)C)ncn2-c2ccc(F)cc2C1=O` the melting point was 184 to 185 °C.
In the case of `CC(C)C1COCc2nc3c(N)nc4cc(OCCN5CCOCC5)ccc4c3n21` (stereo unspecified), the melting point is reported as 194 to 195 °C.
For `COc1ccc(SC2=C(C(=O)NO)CCC2=CCCc2ccccc2)cc1OC`, the melting point was 44 to 46 °C.
For `O=C1CCC(c2ccc3c(c2)CCC2(CCN(C4CCC4)CC2)O3)=NN1`, the melting point was 242 to 244 °C.
`COC(=O)c1ccc(-n2cc3ccccc3n2)cc1` showed a melting point of 80 to 81 °C.
In the case of `CCOC(=O)CC(C#N)(CC(=O)OCC)c1ccc(F)cc1`, the melting point is reported as 68 to 70 °C.
Work on `CCn1c(CO)nc(C(C)C)c1Sc1cccc(Cl)c1` yielded a melting point of 99 to 100 °C.
For `Cc1ccc(S(=O)(=O)NC(=O)NCCc2ccc(-n3c(C(C)O)nc4cc(C(F)(F)F)c(Cl)cc43)cc2)cc1` (stereo unspecified), the melting point was 220 °C.
For `CO/N=C1\CCCC[C@@H]1NC(=O)c1cnc(O[C@@H](C)C(F)(F)F)c(-c2ccc(Cl)cc2)n1`, the melting point was 120 to 123 °C.
With `O=CNc1ccccc1Nc1ccc(C(=O)c2ccccc2)cc1` the melting point was 122 to 124 °C.
With `CCOc1ccc(NC(=O)NCCCOc2cccc(CN3CCCCC3)c2)cc1` the melting point was 109 to 111 °C.
With `COc1cc(Oc2ccc(S(C)(=O)=O)nc2)cc2cc(C3=NCC(CC(=O)N4CCOCC4)S3)[nH]c12` (stereo unspecified) the melting point was 148 to 149 °C.
With `CCC(=CC(CNC(=O)c1cnccc1C(N)=O)=NO)C(C)[N+](=O)[O-]` (stereo unspecified) the melting point was 122 to 123 °C.
`O=S(c1ccc(/C=C/c2nc(CNc3ccc(CCCCn4ccnn4)cc3)co2)cc1)C(F)(F)F` (stereo unspecified) gave a melting point of 121 to 124 °C.
For `O=C(c1ccc([N+](=O)[O-])cc1)N1CCCc2ccccc21`, the melting point was 86 to 88 °C.
`CN1C(=O)CN(C(=O)Cl)C(c2ccccc2)c2cc(Cl)ccc21` (single isomer, unassigned; (-)) gave a melting point of 201 to 204 °C.
`COc1cc2cc3ncc(C#N)c(Nc4ccc(Cl)cc4Cl)c3cc2cc1OC` gave a melting point of 271 to 273 °C.
`CCOC(=O)c1cc(=O)c(Oc2ccc(OC)cc2)co1` gave a melting point of 106 to 107 °C.
Work on `COC(=O)C(c1ccc(Cl)cc1)c1ncc(C(F)(F)F)cc1Cl` (stereo unspecified) yielded a melting point of 103 to 104 °C.
In the case of `C=CCOC(=O)Nc1c(C#N)cnn1-c1ccc(Cl)c(Cl)c1Cl`, the melting point is reported as 154 to 155 °C.
`NS(=O)(=O)c1ccc(C2(c3nc4c(F)cccc4s3)C=C(C(F)F)NN2)cc1` (stereo unspecified) showed a melting point of 243 to 245 °C.
With `COc1cccc(-c2nc(NC(=O)Nc3ccccn3)cs2)c1` the melting point was 201 to 203 °C.
With `Nc1nc(Cn2c(-c3ccc(Oc4cncnc4)cc3)ccc2-c2ccccc2Cl)ccc1OCCO` the melting point was 78 to 81 °C.
For `NC(=O)c1nnn(Cc2ccc(Cl)c(C(Cl)=C(Cl)Cl)c2)c1N`, the melting point was 174 to 175 °C.
With `CC(C)(C)OC(=O)N1CCO[C@@H](c2ccc(C(N)=O)cc2)C1` the melting point was 179 °C.
With `Cn1cc(CS(C)=O)c(=O)c2ccc(C(F)(F)F)cc21` (stereo unspecified) the melting point was 208 to 210 °C.
With `COc1cc(OCc2ccccn2)ccc1/C=C/c1cc(/C=C/c2ccc3[nH]ccc3c2)n[nH]1` the melting point was 98 to 104 °C.
